Laboratory results reported in publication PMC7109127 (British Journal of Cancer, 2020).
“And” between values parts separate entries of the source, which are not always exact repeats. Equal entries are not always repeated. Where two headings read alike, the source gives them in different places.

Assays:
SK-HEP-1 cells = details: cited from earlier work
[1] = TIVO-1; cited from earlier work
CYP3A4 = details: background statement; cited from earlier work
[2] = phase 1b/2 study, plasma pharmacokinetics (LC-MS/MS, NCA and nonlinear mixed-effects model); assay type: in vivo, patients; set-up: AUC0-4: concentration or dose not given beside the values
Description: LC-MS/MS analysis of the extracted samples was performed using an Agilent Technologies (Santa Clara, California) HPLC system and the API 3000 mass spectrometer (Sciex, Framingham, MA) with electrospray ionisation. Chromatographic separation was achieved using a biphasic gradient over a Cortecs C18 column (2.1 × 50 mm^2, Waters Corporation, Milford, MA) preceded by a Cortecs C18+VanGuard Cartridge (2.1 × 5 mm^2, Waters Corporation). Analytes were detected using multiple reaction monitoring in positive ion mode.
A nonlinear mixed-effects model was developed using first-order conditional estimation with interaction (FOCE-I) with the Laplacian option selected. This estimator was chosen as it is more suitable to modelling sparse data sets. One- and two-compartment structural models were tested with first-order absorption, both with and without a separate bioavailability term. Estimates for inter-subject variability were tested on all PK parameters using exponential relationships and were included where they could be confidently estimated. Inter-occasion variability between cycle 1 day 1 and cycle 1 day 15 was also tested. The residual unexplained variability in drug concentrations was tested with additive, proportional, and combined additive and proportional error models. Model selection was performed on the basis of the negative log-likelihood objective function (OFV) and standard goodness-of-fit and diagnostic plots. The final model was composed of one disposition compartment with first-order absorption and elimination. […] To facilitate comparison with previous studies, AUCs from 0 to 4 and 0 to 24 h were calculated from each individual’s model-predicted PK profile. Similarly, the maximum concentration (Cmax) and time of maximum concentration in a given dosing interval (tmax) were estimated both from the original data and the model prediction. The analysis was performed with NONMEM 7.4.1 (ICON plc, Dublin, Ireland), integrated with PSN 4.6.0 (psn.sourceforge.net) and using the Pirana 2.9.2 interface (pirana-software.com).

[3] = individual patient estimate (Subject ID in c0)
[4] = individual patient, Day 1, NCA and Observation
[5] = individual patient, Day 15, NCA and Observation

COc1cc2nccc(Oc3ccc(NC(=O)Nc4cc(C)on4)c(Cl)c3)c2cc1OC [tivozanib]
tumour growth inhibition (SK-HEP-1 cells; daily oral 0.2 mg/kg for 2 weeks): ~60%
tumour inhibition (SK-HEP-1 cells; daily oral 1 mg/kg): ~90%
diarrhoea incidence [1]: 23%
hypertension incidence [1]: 44%
palmar–plantar erythrodysesthesia incidence [1]: 14%
interaction with CYP3A4 inhibitors (CYP3A4): no interaction
tmax, Median ([2]; Day 1, 1 mg, NCA and observation): 4.067 h
AUC(0-t) ([2]; human, plasma, oral, 1 mg, Day 1, 1 mg, Model prediction, read-out: AUC0–4, Mean): 14.3 ng·h/mL
AUC(0-t) ([2]; human, plasma, oral, 1 mg, Day 1, 1 mg, Model prediction, read-out: AUC0–24, Mean): 176 ng·h/mL
Cmax ([2]; human, plasma, oral, 1 mg, Day 1, 1 mg, Model prediction, read-out: Cmax, Mean): 8.75 ng/mL
tmax ([2]; human, plasma, oral, 1 mg, Day 1, 1 mg, Model prediction, read-out: tmax, Median): 13.3 h
AUC(0-t) ([2]; human, plasma, oral, 1 mg, Day 1, 1 mg, NCA and observation, read-out: AUC0–4, Mean): 14.2 ng·h/mL
Cmax ([2]; human, plasma, oral, 1 mg, Day 1, 1 mg, NCA and observation, read-out: Cmax, Mean): 6.54 ng/mL
tmax ([2]; human, plasma, oral, 1 mg, Day 1, 1 mg, NCA and observation, read-out: tmax, Median): 4.07 h
AUC(0-t) ([2]; human, plasma, oral, 1 mg, Day 15, 1 mg, Model prediction, read-out: AUC0–4, Mean): 190 ng·h/mL
AUC(0-t) ([2]; human, plasma, oral, 1 mg, Day 15, 1 mg, Model prediction, read-out: AUC0–24, Mean): 1100 ng·h/mL
Cmax ([2]; human, plasma, oral, 1 mg, Day 15, 1 mg, Model prediction, read-out: Cmax, Mean): 50.7 ng/mL
tmax ([2]; human, plasma, oral, 1 mg, Day 15, 1 mg, Model prediction, read-out: tmax, Median): 7 h
AUC(0-t) ([2]; human, plasma, oral, 1 mg, Day 15, 1 mg, NCA and observation, read-out: AUC0–4, Mean): 184 ng·h/mL
Cmax ([2]; human, plasma, oral, 1 mg, Day 15, 1 mg, NCA and observation, read-out: Cmax, Mean): 58.7 ng/mL
tmax ([2]; human, plasma, oral, 1 mg, Day 15, 1 mg, NCA and observation, read-out: tmax, Median): 2.05 h
Vd/F ([2]; human, plasma, oral, 1 mg, typical population value, read-out: Apparent Volume of Distribution (V/F)): 105 L
Apparent systemic clearance [2, 3]: 0.99 L/h and 0.81 L/h and 0.80 L/h
Apparent volume of distribution [2, 3]: 159 L
AUC0-4 [2, 4]: 20.2 ng·h/mL and 21.6 ng·h/mL and 35.9 ng·h/mL and 27.7 ng·h/mL and 1.5 ng·h/mL and 11.0 ng·h/mL and 7.0 ng·h/mL and 16.2 ng·h/mL and 30.3 ng·h/mL and 18.0 ng·h/mL and 18.1 ng·h/mL and 10.6 ng·h/mL and 10.7 ng·h/mL and 16.6 ng·h/mL and 13.8 ng·h/mL and 6.8 ng·h/mL and 15.5 ng·h/mL and 10.3 ng·h/mL and 3.6 ng·h/mL and 0.6 ng·h/mL and 3.5 ng·h/mL and 21.5 ng·h/mL and 18.8 ng·h/mL and 8.9 ng·h/mL and 4.7 ng·h/mL and 24.5 ng·h/mL and 19.4 ng·h/mL
Cmax [2, 4]: 8.57 ng/mL and 13.6 ng/mL and 16.3 ng/mL and 9.53 ng/mL and 1.42 ng/mL and 3.62 ng/mL and 2.78 ng/mL and 6.93 ng/mL and 11.8 ng/mL and 8.23 ng/mL and 6.82 ng/mL and 5.84 ng/mL and 4.7 ng/mL and 7.56 ng/mL and 4.71 ng/mL and 3.4 ng/mL and 5.18 ng/mL and 8.48 ng/mL and 1.4 ng/mL and 0.616 ng/mL and 2 ng/mL and 7.29 ng/mL and 7.79 ng/mL and 5.82 ng/mL and 2.97 ng/mL and 8.63 ng/mL and 10.6 ng/mL
tmax [2, 4]: 4.067 h and 4.417 h and 4.05 h and 2.167 h and 4.083 h and 4.183 h and 4.017 h and 4.2 h and 4.033 h and 2.067 h and 4.133 h and 5.25 h and 7.667 h and 2.1 h and 4.35 h and 4.167 h
AUC0-4 [2, 5]: 333.0 ng·h/mL and 558.5 ng·h/mL and 360.8 ng·h/mL and 205.7 ng·h/mL and 154.1 ng·h/mL and 177.6 ng·h/mL and 112.9 ng·h/mL and 103.0 ng·h/mL and 261.2 ng·h/mL and 156.5 ng·h/mL and 150.0 ng·h/mL and 134.8 ng·h/mL and 134.3 ng·h/mL and 148.1 ng·h/mL and 239.7 ng·h/mL and 175.8 ng·h/mL and 163.5 ng·h/mL and 154.7 ng·h/mL and 185.6 ng·h/mL and 106.3 ng·h/mL
Cmax [2, 5]: 89.5 ng/mL and 201 ng/mL and 104 ng/mL and 58.8 ng/mL and 43.1 ng/mL and 47 ng/mL and 31.1 ng/mL and 32.3 ng/mL and 70.9 ng/mL and 61.2 ng/mL and 49.9 ng/mL and 33.3 ng/mL and 37.8 ng/mL and 69.4 ng/mL and 53.6 ng/mL and 43.4 ng/mL and 40.3 ng/mL and 38.7 ng/mL and 57.4 ng/mL and 47.3 ng/mL and 30.8 ng/mL
tmax [2, 5]: 2.06 h and 2.01 h and 2.1 h and 2.03 h and 2.07 h and 2.12 h and 2 h and 2.02 h and 4.12 h and 4.09 h and 3.91 h
Inter-individual variability (IIV) in CL/F ([2]; population model): 42.4 %CV
Inter-individual variability (IIV) in V/F ([2]; population model): 45.8 %CV
Inter-individual variability (IIV) in ka/F ([2]; population model): 57.5 %CV
Apparent Systemic Clearance (CL/F) ([2]; typical population value): 0.803 L/h
Apparent first-order absorption rate constant (ka/F) ([2]; typical population value): 0.239 h⁻¹
